Laboratory results as given in patent US5321024A, “Antiviral pharmaceutical composition for treating lymphocytes” (Godecke Aktiengesellschaft, priority 1991, dated 1994).

Experiments:
[1] = tested on: HIV viruses (cell line C8166); test: in vitro anti-HIV protection assay in cell line C8166; assay type: cell-based
From the text: (§1) This is usually substantially more difficult to protect so, for example, in the case of the use of 3-azide-3'-deoxythymidine (AZT), a 100-fold higher dosage is needed than in the use of the compound of the present invention.
(§2) The above assay is described in the Journal of the National Cancer Institute, Vol. 81, No. 8, Apr. 19, 1989.

HIV viruses = test: CPE cell line assay against p24 antigen; assay type: cell-based; conditions: Human immunodeficiency virus 1, in vitro
From the text: as §1, §2

[2] = tested on: HIV viruses (T-lymphocytes); test: protection of T-lymphocytes against the cytopathic effect of HIV viruses; assay type: cell-based
reverse transcriptase = reverse transcriptase (Human immunodeficiency virus type 1 group M subtype B, UniProt P04585); test: inhibition of reverse transcriptase; assay type: biochemical; conditions: in vitro
From the text: as §1

[3] = tested on: HIV viruses (CEM-IW cell line); test: in vitro anti-HIV assay in CEM-IW cell line; assay type: cell-based; conditions: Human immunodeficiency virus 1
From the text: as §1, §2

## Cc1cn([C@H]2C[C@H](N=[N+]=[N-])[C@@H](CO)O2)c(=O)[nH]c1=O [AZT, 3-azide-3'-deoxythymidine, reference compound]
[1]; cell line C8166, higher dosage needed
  dosage needed relative to the compound of the present invention: 100 fold

## O=S1(c2ccccc2)=NC(=S)Nc2ccccc21 (stereo not drawn) [Example 1, 3,4-Dihydro-1-phenyl-3-thio-1,2,4-benzothiadiazine 1-oxide]
[1]; cell line C8166, usually substantially more difficult to protect
  values found for the cell line C8166 compared with the other cell line values: comparable values
HIV viruses
  EC50: ~1650 nM
[2]
  protection of T-lymphocytes against the cytopathic effect of HIV viruses: complete protection
Reverse transcriptase
  IC50: 2000 nM
[3]
  EC50: ~2000 nM
